Patent publication US20200046703A1, “COMPOSITIONS AND METHODS FOR TREATMENT OF THE SIDE-EFFECTS ASSOCIATED WITH ADMINISTRATION OF THERAPEUTIC AGENTS” (ASYMMETRIC THERAPEUTICS, LLC, priority 2018, published 2020)
Where “and” joins values, the source holds several entries; their conditions need not be identical. Equal values may be shown once.

Assays:
[1] = Confluent HPEK cell viability with/without 5-FU; format: cell-based, human; details: human, confluent HPEK cells; 10 μM of 5-FU; read-out: viability compared to a control system without 5-FU
Method: (§1) Oxypurinol and allopurinol concentrations of 0.3 mM, 1.0 mM, and 3.0 mM, which are ten times higher than those used in the first set of experiments, were tested. An adenine concentration of 0.3 mM, which was the higher concentration used in the first set of experiments, was tested. The relative viability of the cells was determined after 120 hours.

confluent HPEK cells = assay: Confluent HPEK cell viability with/without 5-FU; format: cell-based, human; details: for relative cell viability (AVG): 120 hours; for Relative Protection against 5-FU toxicity / Relative Growth in the presence of 5-FU: HPEK confluent cells; for Relative Protection against 5-FU toxicity: fraction of viability loss prevented; for Relative Growth in the presence of 5-FU: viability with 5-FU divided by viability without 5-FU
Method: as §1

[2] = Proliferating HPEK cell viability with/without 5-FU; format: cell-based, human; details: human, proliferating HPEK cells; 10 μM of 5-FU; read-out: viability compared to a control system without 5-FU
Method: (§2) In another set of experiments, the results of which are shown in Table 2, proliferating HPEK cells, commonly used to assess skin tissue toxicity, were exposed to the clinically-relevant dose of 10 μM of 5-FU and different concentrations of oxypurinol, either alone or with different concentrations of adenine or uracil, using standard tissue culture methods and incubated at 37° C. Oxypurinol concentrations of 0.03 mM, 0.1 mM, and 0.3 mM were tested. Adenine and uracil concentrations of 0.1 mM and 0.3 mM were tested. The relative viability of the cells was determined after 120 hours.

proliferating HPEK cells = assay: as above; format: cell-based, human; details: 5-FU 10 μM alone; relative to control; 120 hours
Method: as §2

[3] = Proliferating HGEP cell viability with/without 5-FU; format: cell-based, human; details: human, proliferating HGEP cells; 10 μM of 5-FU; read-out: viability compared to a control system without 5-FU
Method: (§3) In one set of experiments, the results of which are shown in Table 1, proliferating HGEP cells, commonly used to assess oral mucosal toxicity, were exposed to the clinically-relevant dose of 10 μM of 5-FU and different concentrations of oxypurinol, either alone or with different concentrations of adenine or uracil, using standard tissue culture methods and incubated at 37° C. Oxypurinol concentrations of 0.03 mM, 0.1 mM, and 0.3 mM were tested. Adenine and uracil concentrations of 0.1 mM and 0.3 mM were tested. The relative viability of the cells was determined after 120 hours.

proliferating HGEP cells = assay: as above; format: cell-based, human; details: 5-FU 10 μM alone; relative to control; 120 hours
Method: as §3

[4] = Confluent NHEK cell viability with/without 5-FU; format: cell-based, human; details: human, confluent NHEK cells; 10 μM of 5-FU; read-out: viability compared to a control system without 5-FU
Method: (§4) In yet another set of experiments, the results of which are shown in Table 4, confluent NHEK cells were exposed to the clinically-relevant dose of 10 μM of 5-FU and different concentrations of sodium hydroxide, oxypurinol, or allopurinol using standard tissue culture methods and incubated at 37° C. Sodium hydroxide concentrations of 1 mM, 2 mM, 3 mM, and 4 mM were tested. Oxypurinol and allopurinol concentrations of 0.1 mM, 0.3 mM, 1.0 mM, and 3.0 mM were tested, both in the presence and in the absence of 10 μM of 5-FU. The relative viability of the cells was determined after 120 hours. The sodium hydroxide trials were only performed to serve as a control.

confluent NHEK cells = assay: Confluent NHEK cell viability with/without 5-FU; format: cell-based, human; details: for relative cell viability (AVG): 120 hours; for Relative Growth in the presence of 5-FU / Relative Protection against 5-FU toxicity: NHEK; for Relative Protection against 5-FU toxicity: fraction of viability loss prevented
Method: as §4

hand-foot syndrome = details: allopurinol at 3%, topical; cited from earlier work
[5] = tested on: mucositis toxicity of 5-FU; details: maximally-tolerated oral dose of 800 mg/day; 5 μM of 5-FU; cited from earlier work
[6] = 5-FU 10 μM alone, relative to control

In the case of `O=c1[nH]cc(F)c(=O)[nH]1` [5-FU, 5-fluorouracil, reference compound], the viability at 120 h, 10 µM [1] is reported as 65.1%, the “relative cell viability (AVG)” value (confluent HPEK cells; [6]) is reported as 0.64 and 0.6421 and the viability at 120 h, 10 µM [2] is reported as 65.1%. The “relative cell viability (AVG)” value (proliferating HPEK cells) was 0.6507, the viability at 120 h, 10 µM [3] was 62.2% and the “relative cell viability (AVG)” value (proliferating HGEP cells) was 0.6217. The viability at 120 h, 10 µM [4] was 41.6% and the “relative cell viability (AVG)” value (confluent NHEK cells; [6]) was 0.42 and 0.4165.

For `Oc1ncnc2[nH]ncc12` [Allopurinol, allopurinol], the “relative cell viability (AVG)” value (confluent HPEK cells; 0.3 mM, no 5-FU) was 1.1870, the “relative cell viability (AVG)” value (confluent HPEK cells; 0.3 mM, with 5-FU 10 μM) was 0.7303 and the “relative cell viability (AVG)” value (confluent HPEK cells; 1.0 mM, no 5-FU) was 1.2411. For the same molecule, the “relative cell viability (AVG)” value (confluent HPEK cells; 1.0 mM, with 5-FU 10 μM) was 0.7748, the “relative cell viability (AVG)” value (confluent HPEK cells; 3.0 mM, no 5-FU) was 1.0410 and the “relative cell viability (AVG)” value (confluent HPEK cells; 3.0 mM, with 5-FU 10 μM) was 0.7528. The “Relative Protection against 5-FU toxicity” value (“Relative Protection” for short) (confluent HPEK cells; 0.3 mM) was 0.2464, the “Relative Growth in the presence of 5-FU” value (confluent HPEK cells; 0.3 mM) was 0.6152 and the “Relative Protection” value (confluent HPEK cells; 1.0 mM) was 0.3709. For the same molecule, the “Relative Growth in the presence of 5-FU” value (confluent HPEK cells; 1.0 mM) was 0.6243, the “Relative Protection” value (confluent HPEK cells; 3.0 mM) was 0.3092 and the “Relative Growth in the presence of 5-FU” value (confluent HPEK cells; 3.0 mM) was 0.7231. The “effect on cell viability in the presence of 5-FU” value (confluent HPEK cells; concentration range of 0.3 mM to 3.0 mM) was “protective effect”, the “therapeutic benefit against HFS” value (hand-foot syndrome) was “did not achieve an adequate therapeutic benefit” and the “prevention of mucositis toxicity of 5-FU” value [5] was “does not prevent the mucositis toxicity”. The “effect on cell viability in the presence of 5-FU” value (confluent NHEK cells; 0.1 mM to 3.0 mM) was “protective effect for confluent NHEK cells that was generally less than oxypurinol”, the “relative cell viability (AVG)” value (confluent NHEK cells; 0.1 mM, no 5-FU) was 1.0426 and the “relative cell viability (AVG)” value (confluent NHEK cells; 0.1 mM, with 5-FU 10 μM) was 0.6303. For the same molecule, the “relative cell viability (AVG)” value (confluent NHEK cells; 0.1 mM, with 5-FU 10 μM, listed as allopurinol) was 0.63, the “relative cell viability (AVG)” value (confluent NHEK cells; 0.3 mM, no 5-FU) was 1.1285 and the “relative cell viability (AVG)” value (confluent NHEK cells; 0.3 mM, with 5-FU 10 μM) was 0.5100. The “relative cell viability (AVG)” value (confluent NHEK cells; 0.3 mM, with 5-FU 10 μM, listed as allopurinol) was 0.51, the “relative cell viability (AVG)” value (confluent NHEK cells; 1.0 mM, no 5-FU) was 1.1137 and the “relative cell viability (AVG)” value (confluent NHEK cells; 1.0 mM, with 5-FU 10 μM) was 0.4370. The “relative cell viability (AVG)” value (confluent NHEK cells; 1.0 mM, with 5-FU 10 μM, listed as allopurinol) was 0.44, the “Relative Growth in the presence of 5-FU” value (confluent NHEK cells; 3.0 mM, FIG. 2) was “less than 41%” and the “relative cell viability (AVG)” value (confluent NHEK cells; 3.0 mM, no 5-FU) was 1.0640. The “relative cell viability (AVG)” value (confluent NHEK cells; 3.0 mM, with 5-FU 10 μM) was 0.4348, the “relative cell viability (AVG)” value (confluent NHEK cells; 3.0 mM, with 5-FU 10 μM, listed as allopurinol) was 0.44 and the “Relative Protection” value (confluent NHEK cells; 0.1 mM) was 0.3664. The “Relative Growth in the presence of 5-FU” value (confluent NHEK cells; 0.1 mM, viability with 5-FU divided by viability without 5-FU) was 0.6045, the “Relative Protection” value (confluent NHEK cells; 0.3 mM) was 0.1603 and the “Relative Growth in the presence of 5-FU” value (confluent NHEK cells; 0.3 mM, viability with 5-FU divided by viability without 5-FU) was 0.4519. For the same molecule, the “Relative Protection” value (confluent NHEK cells; 1.0 mM) was 0.0352, the “Relative Growth in the presence of 5-FU” value (confluent NHEK cells; 1.0 mM, viability with 5-FU divided by viability without 5-FU) was 0.3924 and the “Relative Protection” value (confluent NHEK cells; 3.0 mM) was 0.0314. For the same molecule, the “Relative Growth in the presence of 5-FU” value (confluent NHEK cells; 3.0 mM, viability with 5-FU divided by viability without 5-FU) was 0.4086 and the “effect on cell viability in the absence of 5-FU” value (confluent NHEK cells; range of 0.1 mM to 3.0 mM) was “small positive effect”.
